Patent publication US7750014B2, “Imidazo[1,2-C]pyrimidinylacetic acid derivatives” (Actimis Pharmaceuticals, Inc., priority 2004, dated 2010)
Read-outs that look alike come from different tables or passages of the source.

What was measured:
human CRTH2 [1] = target: T1, human CRTH2 (Homo sapiens, UniProt Q9Y5Y4); assay: Measurement of Ca2+ mobilization in the human CRTH2-transfected L1.2 cell line (Assay 1); assay type: cell-based; settings: PGD2-induced Ca2+ mobilization, CRTH2-transfected L1.2 cells, compounds at purity of about 40 to 90%
T1 construct: expressed in transfected cells
T1 sequence (Q9Y5Y4 1-395): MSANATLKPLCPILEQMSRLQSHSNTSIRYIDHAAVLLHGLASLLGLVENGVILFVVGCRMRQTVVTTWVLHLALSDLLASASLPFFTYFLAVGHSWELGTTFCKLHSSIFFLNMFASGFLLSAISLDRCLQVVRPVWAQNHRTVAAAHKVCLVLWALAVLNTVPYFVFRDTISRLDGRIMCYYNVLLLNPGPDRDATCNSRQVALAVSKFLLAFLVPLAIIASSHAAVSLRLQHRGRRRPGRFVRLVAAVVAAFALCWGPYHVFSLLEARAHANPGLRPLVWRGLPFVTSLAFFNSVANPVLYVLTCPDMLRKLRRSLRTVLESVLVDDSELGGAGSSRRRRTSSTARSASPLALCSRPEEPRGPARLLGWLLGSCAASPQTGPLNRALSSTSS
Description: (§1) Human CRTH2 cDNA was amplified from human eosinophil cDNA with gene specific primers containing restriction sites for cloning into pEAK vector (Edge Bio Systems). The human CRTH2 cDNA was cloned into the mammalian expression vector pEAK. This expression plasmid (40 μg) was transfected into L1.2 cells, at a cell density of 1×10^7 cells/500 μl, by using electroporation apparatus (Gene Pulser II, BioRad) at 250V/1,000 μF. One day after the transfection, puromycin (1 μg/ml, Sigma) was added into the cell culture plates. Two weeks after the transfection, grown cells were picked up for further growth.
Ca^2+ loading buffer was prepared by mixing 5 μl of Fluo-3AM (2 mM in DMSO, final 1 μM, Molecular Probes) and 10 μl of pluronic F-127 (Molecular Probes) and diluting the resulting mixture in 10 ml of Ca^2+ assay buffer (20 mM HEPES pH 7.6, 0.1% BSA, 1 mM probenecid, Hanks' solution). The CRTH2 transfected cells which were prepared in Example 1 were washed with PBS, resuspended in Ca^2+ loading buffer at 1×10^7 cells/ml, and incubated for 60 min at room temperature. After incubation, cells were washed and resuspended in Ca^2+ assay buffer, then dispensed into transparent-bottom 96-well plates (#3631, Costar) at 2×10^5 cells/well. Cells were incubated with various concentrations of test compound for 5 minutes at room temperature. The emitted 480 nm fluorescence was measured on FDSS6000, a Ca^2+-measurement apparatus (Hamamatsu Photonics, Hamamatsu, Japan).
Assay results in Assay 1 are shown in Examples and tables of the Examples below. The data corresponds to the compounds as yielded by solid phase synthesis and thus to levels of purity of about 40 to 90%. For practical reasons, the compounds are grouped in four classes of activity as follows: IC50=A(< or =)10 nM<B(< or =)100 nM<C(< or =)500 nM<D

human CRTH2 [2] = target: T1, human CRTH2; assay: Human CRTH2 receptor binding assay (Assay 2); settings: binding to puromycin-resistant CRTH2 L1.2 transfectants
Description: as §1
CRTH2 transfectants were washed once with PBS and resuspended in binding buffer (50 mM Tris-HCl, pH7.4, 40 mM MgCl2, 0.1% BSA, 0.1% NaN3). 100 μl of cell suspension (2×10^5 cells), [^3H]-labeled PGD2, and various concentrations of test compound were then mixed in a 96-well U-bottom polypropylene plate and incubated for 60 min at room temperature to allow binding to occur. After incubation, the cell suspension was transferred to a filtration plate (#MAFB, Millipore) and washed 3 times with binding buffer. Scintillant was added to the filtration plate, and radioactivity remaining on the filter was measured by TopCount (Packard), a scintillation counter. Non-specific binding was determined by incubating the cell suspension and [^3H]-labeled PGD2 in the presence of 1 μM of unlabeled PGD2.

[3] = read-out: In vitro activity grade

SMILES	IC50 (human CRTH2 [1]; [3]) [µM]	IC50 (human CRTH2 [1]; read-out: Activity class) [µM]	further results
O=C(O)Cc1c(Cl)nc(Cc2ccc(NC(=O)/C=C/c3ccc(Cl)cc3)cc2)n2ccnc12 [Example 1-5, [7-chloro-5-(4-{[(2E)-3-(4-chlorophenyl)prop-2-enoyl]amino}benzyl)imidazo[1,2-c]pyrimidin-8-yl]acetic acid]		0.01 to 0.1	
O=C(O)Cc1c(Cl)nc(Cc2ccc(NC(=O)c3ccc(C(F)(F)F)cc3)cc2)n2ccnc12 [Example 1-1, [7-Chloro-5-(4-{[4-(trifluoromethyl)benzoyl]amino}benzyl)imidazo[1,2-c]pyrimidin-8-yl]acetic acid]	0.01 to 0.1		
O=C(O)Cc1c(Cl)nc(Cc2ccc(NC(=O)c3ccc4ccccc4c3)cc2)n2ccnc12 [Example 1-3, {7-chloro-5-[4-(2-naphthoylamino)benzyl]imidazo[1,2-c]pyrimidin-8-yl}acetic acid]		0.01 to 0.1	
O=C(O)Cc1c(Cl)nc(Cc2ccc(NC(=O)c3ccc(Cl)c(Cl)c3)cc2)n2ccnc12 [Example 1-2, (7-chloro-5-{4-[(3,4-dichlorobenzoyl)amino]benzyl}imidazo[1,2-c]pyrimidin-8-yl)acetic acid]		< 0.01	
CCCCC[C@H](O)/C=C/[C@H]1C(=O)C[C@H](O)[C@@H]1C/C=C\CCCC(=O)O [[^3H]-labeled PGD2]			Kd (human CRTH2 [2]): 0.0063 µM
O=C(O)Cc1c(Cl)nc(Cc2ccc(NC(=O)/C=C/c3ccccc3)cc2)n2ccnc12 [Example 1-4]		< 0.01	

Now from value to compound, other results behind:

IC50 (human CRTH2 [1]; [3]) [µM]	IC50 (human CRTH2 [1]; read-out: Activity class) [µM]	SMILES	further results
0.1 to 0.5		O=C(O)Cc1cnc(Cc2ccc(NC(=O)c3ccc(Cl)c(Cl)c3)cc2)n2ccnc12 [Example 2-2, (5-{4-[(3,4-Dichlorobenzoyl)amino]benzyl}imidazo[1,2-c]pyrimidin-8-yl)acetic acid]	
0.01 to 0.1		O=C(O)Cc1cnc(Cc2ccc(NC(=O)c3ccc(C(F)(F)F)cc3)cc2)n2ccnc12 [Example 2-1, [5-(4-{[4-(trifluoromethyl)benzoyl]amino}benzyl)imidazo[1,2-c]pyrimidin-8-yl]acetic acid]	
